Reference: publication PMC6151491, “In Vitro Evaluation of Third Generation PAMAM Dendrimer Conjugates” (Molecules : A Journal of Synthetic Chemistry and Natural …, 2017)

System: Caco-2 cells
Test: Lactate dehydrogenase leakage (LDH) assay
Assay type: cell-based, Human
Settings: 3 h incubation, mean ± S.D., n = 4, read-out: IC50 (viability of Caco-2 cells, LDH assay)
Experimental: Human intestinal adenocarcinoma cells (Caco-2) (passage 110–120) were seeded at 10,000 cells/well in 96-well plates and maintained at 37 °C in an atmosphere of 5% CO2 and 95% relative humidity in Dulbecco’s Modified Eagle’s Medium (DMEM) supplemented with 1% foetal bovine serum, 1% non-essential amino acids, 50 IU/mL penicillin. and […] streptomycin. After 24 h the medium was removed and the cells were washed in phosphate buffered saline and 200 µL Hanks Balanced Salt Solution (HBSS) containing G3 PAMAM dendrimer, conjugates or G0 PAMAM dendrimer at different concentrations (concentrations were calculated using the average molecular weight (Table 1) for each conjugate as a whole macromolecule). Caco-2 cell monolayers were also treated with blank HBSS and 1% Triton X-100 as low and high controls, respectively. After 3 h of incubation at 37 °C, 100 µL/well supernatant was removed carefully and transferred into corresponding wells of an optically clear 96-well flat bottom microplate. LDH leakage in the compartment was quantified using an LDH assay kit.
The percentage was calculated using the following equation:Cytotoxicity (%) = ((exp. − low control)/(high control − low control)) × 100 where exp. is the experimental value.

lauroyl-G0-diethylene glycol-naproxen [L-G0-deg-NAP]
IC50: 3.18 ± 0.455 mM
